According to patent publication US7960556B2, “Thiadiazole derivatives for the treatment of neuro-degenerative diseases” (NV reMYND, priority 2006, dated 2011):

Tested on: α-synuclein cytotoxicity in M17-SYNwt cells
Experiment: α-synuclein cytotoxicity assay: LDH leakage from paraquat-treated M17-SYNwt neuroblastoma cells;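 also: paraquat at 32 mM co-added with compound, 40 h exposure, LDH activity released into the culture medium measured, references are DMSO-only cells and paraquat plus DMSO cells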
Conditions: Homo sapiens, Neuroblastoma cell; for Emax: read-out: % Inhib.
From the text: An α-synuclein expression plasmid was constructed by sub-cloning the NcoI/XhoI fragment from 212T-SYN(WT) (Griffioen et al., Biochem Biophys Acta (2006) 1762(3):312-318) containing the cDNA of human wild type α-synuclein correspondingly into a standard mammalian expression vector pcDNA3.1 (Invitrogen) resulting into the plasmid pcDNA3.1-SYNwt. Plasmids pcDNA3.1 and pcDNA3.1-SYNwt were transfected to human neuroblastoma cells (ATCC No. CRL-2267) and independent clonal lines with the plasmids stably integrated into the genome were selected. […] Over-expression of α-synuclein in M17-SYNwt cell lines was confirmed by Western analysis.
Due to the high levels of α-synuclein M17-SYNwt cells are exquisitely sensitivity to paraquat, a well-known risk factor of synuclein-dependent neuronal degeneration. In degenerated or dead cells lactate dehydrogenase (LDH) is leaked out of the cells into the extracellular environment due to a loss of plasma-membrane integrity. This principle was used to determine cytotoxicity by quantifying the level of leaked LDH into the growth medium.
The detailed method for determining α-synuclein cytotoxicity was as follows: From appropriate precultures of M17 and M17-SYN cells were seeded at 50,000 cells/cm^2 in Optimem Reduced Serum without phenol red (available from InVitrogen, Cat. 31985-047) supplemented with 5% fetal calf serum, 1 mM sodium pyruvate, 1× non-essential amino acids, 500 μg/ml G418 0,5× antibiotic/antimycotic. After 3 hours of incubation at 37° C./5% CO2 paraquat was added to the cells (final concentration of 32 mM), together with the test compound and the cells were further incubated for 40 hours. Subsequently, LDH activity was determined using Promega Cytotox 96 Non-Radioactive cytotoxicity assay, (Cat. G1780) according the instructions of the supplier.
In these experiments, the control group consisted of M17-SYNwt cells treated with DMSO, the untreated paraquat group consisted of M17-SYNwt cells treated with paraquat and DMSO, and the treated paraquat group consisted of M17-SYNwt cells treated with paraquat and the test compound dissolved in DMSO.

| SMILES | EC50 | Emax |
| --- | --- | --- |
| COc1cccc(S(=O)(=O)N2CCN(c3nc(Cc4ccc(F)cc4)ns3)CC2)c1 [compound 44, 1-[3-methoxyphenylsulfonyl]-4-[3-(4-fluorobenzyl)-1,2,4-thiadiazol-5-yl]piperazine] | 128 nM | 99% |
| Cc1ccc(Cc2nsc(N3CCN(S(=O)(=O)c4c(C)cc(C)cc4C)C(C)C3)n2)cc1 (centres unmarked) [compound 45, 1-[2,4,6-trimethylphenylsulfonyl]-4-[3-(4-methylbenzyl)-1,2,4-thiadiazol-5-yl]-2-methylpiperazine] | 1200 nM | 56% |
| CC1CN(c2nc(Cc3ccc(F)cc3)ns2)CCN1S(=O)(=O)c1cccc(C(F)(F)F)c1 (centres unmarked) [compound 46, 1-[3-trifluorophenylsulfonyl]-4-[3-(4-fluorobenzyl)-1,2,4-thiadiazol-5-yl]-2-methylpiperazine] | 1340 nM | 64% |
| CC1CN(c2nc(Cc3ccc(F)cc3)ns2)CCN1S(=O)(=O)c1ccccc1 (centres unmarked) [compound 47, 1-phenylsulfonyl-4-[3-(4-fluorobenzyl)-1,2,4-thiadiazol-5-yl]-2-methylpiperazine] |  | 129% |
| CC(=O)Nc1ccc(S(=O)(=O)N2CCN(c3nc(Cc4ccc(C)cc4)ns3)CC2C)cc1 (centres unmarked) [compound 48, 1-[4-acetamidophenylsulfonyl]-4-[3-(4-methylbenzyl)-1,2,4-thiadiazol-5-yl]-2-methylpiperazine] | 8.44 nM | 91% |
| CC(=O)Nc1ccc(S(=O)(=O)N2CCN(c3nc(Cc4ccc(C)cc4)ns3)CC2)cc1 [compound 49, 1-[4-acetamidophenylsulfonyl]-4-[3-(4-methylbenzyl)-1,2,4-thiadiazol-5-yl]piperazine] | 0.106 nM | 77% |
| Cc1ccc(Cc2nsc(N3CCN(S(=O)(=O)c4ccc(C)cc4)C(C)C3)n2)cc1 (centres unmarked) [compound 50, 1-[4-methylphenylsulfonyl]-4-[3-(4-methylbenzyl)-1,2,4-thiadiazol-5-yl]-2-methylpiperazine] |  | 105% |
| COc1ccc(S(=O)(=O)N2CCN(c3nc(Cc4ccc(Cl)cc4)ns3)CC2C)cc1 (centres unmarked) [compound 51, 1-[4-methoxyphenylsulfonyl]-4-[3-(4-chlorobenzyl)-1,2,4-thiadiazol-5-yl]-2-methylpiperazine] | 1.35 nM | 94% |
| O=S(=O)(c1ccc2ccccc2c1)N1CCN(c2nc(Cc3ccc(Cl)cc3)ns2)CC1 [compound 52, 1-[2-naphtylsulfonyl]-4-[3-(4-chlorobenzyl)-1,2,4-thiadiazol-5-yl]piperazine] | 100 nM | 104% |
| COc1ccc(S(=O)(=O)N2CCN(c3nc(Cc4cccc(OC)c4)ns3)CC2)cc1 [compound 53, 1-[4-methoxyphenylsulfonyl]-4-[3-(3-methoxybenzyl)-1,2,4-thiadiazol-5-yl]piperazine] | 1.4 nM | 83% |
| CC1CN(c2nc(Cc3ccc(F)cc3)ns2)CCN1S(=O)(=O)c1ccc(C(C)(C)C)cc1 (centres unmarked) [compound 54, 1-[4-tert-butylphenylsulfonyl]-4-[3-(4-fluorobenzyl)-1,2,4-thiadiazol-5-yl]-2-methylpiperazine] |  | 60% |
| CC(=O)Nc1ccc(S(=O)(=O)N2CCN(c3nc(Cc4ccc(F)cc4)ns3)CC2C)cc1 (centres unmarked) [compound 55, 1-[4-acetamidophenylsulfonyl]-4-[3-(4-fluorobenzyl)-1,2,4-thiadiazol-5-yl]-2-methylpiperazine] | 78.1 nM | 114% |
| Cc1ccc(Cc2nsc(N3CCN(S(=O)(=O)c4cccc(C(F)(F)F)c4)C(C)C3)n2)cc1 (centres unmarked) [compound 56, 1-[3-trifluoromethylphenylsulfonyl]-4-[3-(4-methylbenzyl)-1,2,4-thiadiazol-5-yl]-2-methylpiperazine] |  | 87% |
| Cc1ccc(Cc2nsc(N3CCN(S(=O)(=O)c4ccc(F)cc4)CC3)n2)cc1 [compound 57, 1-[4-fluorophenylsulfonyl]-4-[3-(4-methylbenzyl)-1,2,4-thiadiazol-5-yl]piperazine] | 10.4 nM | 88% |
| Cc1ccc(Cc2nsc(N3CCN(S(=O)(=O)c4ccc(F)cc4)C(C)C3)n2)cc1 (centres unmarked) [compound 58, 1-[4-fluorophenylsulfonyl]-4-[3-(4-methylbenzyl)-1,2,4-thiadiazol-5-yl]-2-methylpiperazine] | 61 nM | 58% |
| CC1CN(c2nc(Cc3ccc(F)cc3)ns2)CCN1S(=O)(=O)c1ccc(F)cc1 (centres unmarked) [compound 59, 1-[4-fluorophenylsulfonyl]-4-[3-(4-fluorobenzyl)-1,2,4-thiadiazol-5-yl]-2-methylpiperazine] |  | 42% |
| COc1ccc(S(=O)(=O)N2CCN(c3nc(Cc4ccc(C)cc4)ns3)CC2C)cc1 (centres unmarked) [compound 60, 1-[4-methoxyphenylsulfonyl]-4-[3-(4-methylbenzyl)-1,2,4-thiadiazol-5-yl]-2-methylpiperazine] | 0.033 nM | 93% |
| Cc1ccc(Cc2nsc(N3CCN(S(=O)(=O)c4cccc(C(F)(F)F)c4)CC3)n2)cc1 [compound 62, 1-[3-trifluoromethylphenylsulfonyl]-4-[3-(4-methylbenzyl)-1,2,4-thiadiazol-5-yl]piperazine] |  | 45% |
| Cc1ccc(S(=O)(=O)N2CCN(c3nc(Cc4ccc(Cl)cc4)ns3)CC2)cc1 [compound 63, 1-[4-methylphenylsulfonyl]-4-[3-(4-chlorobenzyl)-1,2,4-thiadiazol-5-yl]piperazine] | 80.7 nM | 83% |
| Cc1ccc(Cc2nsc(N3CCN(S(=O)(=O)c4ccc(Br)cc4)CC3)n2)cc1 [compound 64, 1-[4-bromophenylsulfonyl]-4-[3-(4-methylbenzyl)-1,2,4-thiadiazol-5-yl]piperazine] |  | 58% |
| Cc1ccc(Cc2nsc(N3CCN(S(=O)(=O)c4ccc5ccccc5c4)CC3)n2)cc1 [compound 65, 1-[2-naphtylsulfonyl]-4-[3-(4-methylbenzyl)-1,2,4-thiadiazol-5-yl]piperazine] | 39.3 nM | 78% |
| Cc1ccc(Cc2nsc(N3CCN(S(=O)(=O)c4ccc(Cl)cc4)CC3)n2)cc1 [compound 66, 1-[4-chlorophenylsulfonyl]-4-[3-(4-methylbenzyl)-1,2,4-thiadiazol-5-yl]piperazine] |  | 81% |
| Cc1ccc(Cc2nsc(N3CCN(S(=O)(=O)c4ccc(C(C)(C)C)cc4)CC3)n2)cc1 [compound 67, 1-[4-tert-butylphenylsulfonyl]-4-[3-(4-methylbenzyl)-1,2,4-thiadiazol-5-yl]piperazine] |  | 41% |
| COc1ccc(S(=O)(=O)N2CCN(c3nc(Cc4ccc(C)cc4)ns3)CC2)cc1 [compound 68, 1-[4-methoxyphenylsulfonyl]-4-[3-(4-methylbenzyl)-1,2,4-thiadiazol-5-yl]piperazine] | 0.255 nM | 53% |
| CC(C)(C)c1ccc(S(=O)(=O)N2CCN(c3nc(Cc4ccc(Cl)cc4)ns3)CC2)cc1 [compound 69, 1-[4-tert-butylphenylsulfonyl]-4-[3-(4-chlorobenzyl)-1,2,4-thiadiazol-5-yl]piperazine] |  | 31% |
| Cc1ccc(Cc2nsc(N3CCN(S(=O)(=O)c4cccc5cccnc45)CC3)n2)cc1 [compound 70, 1-[quinoline-8-sulfonyl]-4-[3-(4-methylbenzyl)-1,2,4-thiadiazol-5-yl]piperazine] |  | 44% |
